Measured values from patent USRE38424E1 (The United States of America as represented by the …, priority 1994, dated 2004).

Columns and labels:
[1] = in vivo; cited from earlier work
[2] = From the text: A total of 47 patients were included in this study. All patients had recurrent advanced stage epithelial ovarian cancer confirmed on histologic review at the Laboratory of Pathology, National Cancer Institute (NCI). Borderline, mixed, and germ cell histologies were excluded.
Pretreatment evaluation consisted of a physical examination, laboratory studies with CA-125, radiographic evaluation by CT scan, baseline electromyogram with nerve conduction velocity studies (EMG/NCV), creatinine clearance, chest radiograph, and EKG. On-study staging was completed within two weeks of starting therapy. Physical examination and laboratory evaluations were repeated with every cycle, except for CBC which was evaluated twice weekly. Patients underwent restaging every two cycles (i.e., every 6 weeks), which included the repetition of any radiographic studies that were abnormal upon entry. EMG/NCV studies were repeated as indicated to determine the presence of any progressive neurologic toxicity.
The G-CSF was supplied to the Division of Cancer Treatment by Amgen, Inc. (Thousand Oaks, Calif.). This G-CSF administration continued until the absolute granulocyte count of the patient was greater than 1500/μl for two consecutive days after the nadir (i.e., the total count for the two days was at least 3000/μl ) or until the total white blood cell count was greater than 30,000/μl. Patients with responding disease or stable disease continued on the study and were reevaluated at two cycle intervals.
Patients manifesting second or third degree heart block had remaining cycles given in the intensive care unit with appropriate interventions. Antiemetics were given as needed.
More specifically, this was undertaken by increasing the dose of G-CSF administered on the next treatment cycle.
The particulars pertaining to the flexible G-CSF dosage regimen are as follows. […] The dose of G-CSF was reduced by 5 μg/kg/day if severe bone pain occurred at these higher G-CSF dosage levels, i.e., at levels greater than or equal to 10 μg/kg/day.

[3] = female, human, in vivo, 1 cycle
[4] = female, human, in vivo, 21 days (per cycle)

CC(=O)O[C@H]1C(=O)[C@@]2(C)[C@H]([C@H](OC(=O)c3ccccc3)[C@]3(O)C[C@H](OC(=O)[C@H](O)[C@@H](NC(=O)c4ccccc4)c4ccccc4)C(C)=C1C3(C)C)[C@]1(OC(C)=O)CO[C@@H]1C[C@@H]2O [Taxol, taxol]
Taxol dosage level above which severe neurotoxicity (peripheral neuropathy) is experienced [1]: above 300 mg/m^2/ 21 days | Alopecia, Grade 1 & 2 ([2]; female, human, in vivo): 38 No. (%) | Bone Pain, Grade 3 & 4 ([2]; female, human, in vivo): 3 (6) No. (%) | Cardiac toxicity, Grade 1 & 2 ([2]; female, human, in vivo): 35 (74) No. (%) | Constitutional toxicity, Grade 1 & 2 ([2]; female, human, in vivo): 43 No. (%) | Constitutional toxicity, Grade 3 & 4 ([2]; female, human, in vivo): 4 (9) No. (%) | Diarrhea, Grade 1 & 2 ([2]; female, human, in vivo): 29 No. (%) | Diarrhea, Grade 3 & 4 ([2]; female, human, in vivo): 2 (4) No. (%) | Hematologic toxicity, Anemia, Grade 1 & 2 ([2]; female, human, in vivo): 17 (47) No. (%) | Hematologic toxicity, Anemia, Grade 3 & 4 ([2]; female, human, in vivo): 30 (47) No. (%) | Hematologic toxicity, Granulocytes, Grade 1 & 2 ([2]; female, human, in vivo): 1 (2) No. (%) | Hematologic toxicity, Granulocytes, Grade 3 & 4 ([2]; female, human, in vivo): 46 (98) No. (%) | Hematologic toxicity, Platelets, Grade 1 & 2 ([2]; female, human, in vivo): 24 (51) No. (%) | Hematologic toxicity, Platelets, Grade 3 & 4 ([2]; female, human, in vivo): 19 (40) No. (%) | Hypersensitivity Reactions, Grade 1 & 2 ([2]; female, human, in vivo): 31 (66) No. (%) | Hypersensitivity Reactions, Grade 3 & 4 ([2]; female, human, in vivo): 2 (4) No. (%) | Median time of neutrophil nadir ([2]; female, human, in vivo): 7 days | Mucositis, Grade 1 & 2 ([2]; female, human, in vivo): 31 (66) No. (%) | Mucositis, Grade 3 & 4 ([2]; female, human, in vivo): 3 (6) No. (%) | Myalgias, Grade 1 & 2 ([2]; female, human, in vivo): 43 No. (%) | Neurologic toxicity, Grade 1 & 2 ([2]; female, human, in vivo): 36 (77) No. (%) | Neurologic toxicity, Grade 3 & 4 ([2]; female, human, in vivo): 3 (6) No. (%) | Patients who continued at the starting dosage combination throughout therapy ([2]; female, human, in vivo): 45% | Patients who continued on that dose combination ([2]; female, human, in vivo): 12 patients | Patients who required red blood cell transfusions ([2]; female, human, in vivo): 55% | Patients with Mobitz I block ([2]; female, human, in vivo): 4% | Patients with Mobitz II block ([2]; female, human, in vivo): 4% | Patients with dose reduction for taxol-induced peripheral neuropathy ([2]; female, human, in vivo): 3 patients | Patients with first degree atrioventricular block ([2]; female, human, in vivo): 4% | Patients with grade 3 and 4 hematologic toxicities ([2]; female, human, in vivo): 98% | Patients with mild ototoxicity ([2]; female, human, in vivo): 11% | Patients with myalgias and arthralgias (grades 1 and 2) ([2]; female, human, in vivo): less than 50% | Time of neutrophil nadir, range ([2]; female, human, in vivo): 5 to 11 days | Vomiting, Grade 1 & 2 ([2]; female, human, in vivo): 23 No. (%) | Median nadir heart rate [2, 3]: 52 bpm | Nadir heart rate, range [2, 3]: 38-59 bpm | Patients with asymptomatic sinus bradycardia [2, 3]: 34% | Cycles associated with neutropenia [2, 4]: 24% | Cycles complicated by fever and neutropenia [2, 4]: 10% | Episodes of complete heart block ([2]; in vivo): No episodes | Patients with hypersensitivity reactions ([2]; in vivo): Two | Patients with rapid atrial fibrillation requiring digitalization ([2]; in vivo): one | Patients with supraventricular tachycardia ([2]; in vivo): two | Treatment related death due to polymicrobial sepsis ([2]; one of 47 patients): 2%
